Data: PubChem BioAssay (NCI)
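A five-concentration, 48-hour dose response in 96-well plates underlies each endpoint, interpolated linearly between surrounding concentrations. At the GI50, growth is halved. TGI denotes the concentration required for complete inhibition of growth.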

Legend:
Assay in all cases: NCI anticancer screen, dose series, 48 h
[1] = tested on: K-562 leukemia
[2] = tested on: UACC-62 melanoma
[3] = tested on: SR leukemia
[4] = tested on: OVCAR-3 ovarian
[5] = tested on: SNB-75 CNS
[6] = tested on: MOLT-4 leukemia
[7] = tested on: SK-OV-3 ovarian
[8] = tested on: RPMI-8226 leukemia
[9] = tested on: BT-549 breast
[10] = tested on: HS 578T breast
[11] = tested on: HOP-92 NSCLC
[12] = tested on: SW-620 colon
[13] = tested on: KM12 colon
[14] = tested on: COLO 205 colon
[15] = tested on: T-47D breast
[16] = tested on: OVCAR-5 ovarian
[17] = tested on: CAKI-1 renal
[18] = tested on: NCI-H460 lung
[19] = tested on: UO-31 renal
[20] = tested on: ACHN renal
[21] = tested on: MDA-MB-468 breast
[22] = tested on: M14 melanoma
[23] = tested on: U251 CNS
[24] = tested on: CCRF-CEM leukemia
[25] = tested on: SN12C renal
[26] = tested on: DU-145 prostate
[27] = tested on: NCI-H226 lung
[28] = tested on: OVCAR-8 ovarian
[29] = tested on: SNB-19 CNS

Compound: O=c1cc(-c2ccccc2)oc2cc(OCCCCNCc3ccccc3)cc(O)c12
- GI50 [1]: 1.97 µM
- TGI [1]: 7.35 µM
- GI50 [2]: 2.16 µM
- TGI [2]: 4.79 µM
- GI50 [3]: 1.79 µM
- TGI [3]: 4.63 µM
- GI50 [4]: 12 µM
- TGI [4]: 25 µM
- GI50 [5]: 10.5 µM
- TGI [5]: 22.4 µM
- GI50 [6]: 2.12 µM
- TGI [6]: 9.43 µM
- GI50 [7]: 14.6 µM
- TGI [7]: 28 µM
- GI50 [8]: 2.25 µM
- TGI [8]: 6.98 µM
- GI50 [9]: 13.2 µM
- TGI [9]: 26.7 µM
- GI50 [10]: 11 µM
- TGI [10]: 32 µM
- GI50 [11]: 3.73 µM
- TGI [11]: 21.1 µM
- GI50 [12]: 10.2 µM
- TGI [12]: 23.4 µM
- GI50 [13]: 5.7 µM
- TGI [13]: 18.9 µM
- GI50 [14]: 5.13 µM
- TGI [14]: 18.4 µM
- GI50 [15]: 13.7 µM
- TGI [15]: 33.1 µM
- GI50 [16]: 19 µM
- TGI [16]: 35.7 µM
- GI50 [17]: 10.2 µM
- TGI [17]: 22.3 µM
- GI50 [18]: 4.96 µM
- TGI [18]: 17.4 µM
- GI50 [19]: 6.11 µM
- TGI [19]: 21.1 µM
- GI50 [20]: 12.2 µM
- TGI [20]: 26.9 µM
- GI50 [21]: 2.55 µM
- TGI [21]: 11.1 µM
- GI50 [22]: 2.02 µM
- TGI [22]: 4.48 µM
- GI50 [23]: 6.11 µM
- TGI [23]: 19.1 µM
- GI50 [24]: 2.89 µM
- TGI [24]: 15.8 µM
- GI50 [25]: 12.7 µM
- TGI [25]: 28 µM
- GI50 [26]: 12.2 µM
- TGI [26]: 24.5 µM
- GI50 [27]: 13.5 µM
- TGI [27]: 32 µM
- GI50 [28]: 12.6 µM
- TGI [28]: 28.7 µM
- GI50 [29]: 13.3 µM
- TGI [29]: 27.9 µM
